Measured values: patent US20090163515A1, “Compounds Which Bind to the Active Site of Protein Kinase Enzymes” (Biofocus Discovery Ltd., priority 2003, published 2009)

system: ROK; assay: ROK activity assay; format: biochemical; set-up: key: +: active; ++: more active; +++: very active; conditions: assays conducted at 1-100 μM

Row | Structure (SMILES) | ROK activity
1 | Oc1ccc(-c2cncc(NCc3ccc(Cl)c(Cl)c3)c2)cc1 [4-[5-(3,4-Dichloro-benzylamino)-pyridin-3-yl]-phenol] | +
2 | Oc1ccc(-c2cncc(Nc3cccc(O)c3)c2)cc1 [4-[5-(3-Hydroxy-phenylamino)-pyridin-3-yl]-phenol] | ++
3 | Oc1cccc(Nc2cncc(-c3ccncc3)c2)c1 [3-([3,4′]Bipyridinyl-5-ylamino)-phenol] | ++
4 | c1ccc2oc(-c3cnc(NCCc4ccncc4)cn3)cc2c1 [(5-Benzofuran-2-yl-pyrazin-2-yl)-(2-pyridin-4-yl-ethyl)-amine] | ++
5 | c1ccc2ncc(-c3cnc(NCCc4ccncc4)cn3)cc2c1 [(2-Pyridin-4-yl-ethyl)-(5-quinolin-3-yl-pyrazin-2-yl)-amine] | ++
6 | OCCC1CCCCN1c1cnc(-c2ccncc2)cn1 (centres unmarked) [2-[1-(5-Pyridin-4-yl-pyrazin-2-yl)-piperidin-2-yl]-ethanol] | +
7 | COc1ccc(CNc2cncc(-c3cccc(C(N)=O)c3)c2)cc1O [3-[5-(3-Hydroxy-4-methoxy-benzylamino)-pyridin-3-yl]-benzamide] | ++
8 | c1cncc(CCNc2cnc(-c3ccc4ccccc4c3)cn2)c1 [(5-Naphthalen-2-yl-pyrazin-2-yl)-(2-pyridin-3-yl-ethyl)-amine] | +
9 | NC(=O)c1cccc(-c2cncc(Nc3cccc(Br)c3)c2)c1 [3-[5-(3-Bromo-phenylamino)-pyridin3-yl]-benzamide] | +
10 | CSc1ccc(-c2cnc(NCCc3ccncc3)cn2)cc1 [[5-(4-Methylsulfanyl-phenyl)-pyrazin-2-yl]-(2-pyridin-4-yl-ethyl)-amine] | ++
11 | Oc1ccc(-c2cncc(NCc3cccc(OC(F)(F)F)c3)c2)cc1 [4-[5-(3-Trifluoromethoxy-benzylamino)-pyridin-3-yl]-phenol] | +
12 | c1cc(-c2cncc(NCc3ccoc3)c2)ccn1 [[3,4′]Bipyridinyl-5-yl-furan-3-ylmethyl-amine] | ++
13 | c1cc(-c2cncc(NCc3ccc4c(c3)OCO4)c2)ccn1 [Benzo[1,3]dioxol-5-ylmethyl-[3,4′]bipyridinyl-5-yl-amine] | ++
14 | NC(=O)c1cccc(-c2cncc(Nc3cccc(O)c3)c2)c1 [3-[5-(3-Hydroxy-phenylamino)-pyridin-3-yl]-benzamide] | ++
15 | NC(=O)c1cccc(-c2cncc(NCc3cccc(Cl)c3)c2)c1 [3-[5-(3-Chloro-benzylamino)-pyridin-3-yl]-benzamide] | ++
16 | c1ccc2cc(-c3cnc(NCCc4ccncc4)cn3)ccc2c1 [(5-Naphthalen-2-yl-pyrazin-2-yl)-(2-pyridin-4-yl-ethyl)-amine] | ++
17 | O=C(NCCO)c1cccc(-c2cncc(NCc3cccc(O)c3)c2)c1 [3-[5-(3-Hydroxy-benzylamino)-pyridin-3-yl]-N-(2-hydroxy-ethyl)-benzamide] | ++
18 | FC(F)(F)Oc1ccc(-c2cnc(NCCc3ccncc3)cn2)cc1 [(2-Pyridin-4-yl-ethyl)-[5-(4-trifluoromethoxy-phenyl)-pyrazin-2-yl]-amine] | ++
19 | Brc1cccc(Nc2cncc(-c3ccncc3)c2)c1 [[3,4′]Bipyridinyl-5-yl-(3-bromo-phenyl)-amine] | ++
20 | Oc1cccc(CNc2cncc(-c3cncc4ccccc34)c2)c1 [3-[(5-Isoquinolin-4-yl-pyridin-3-ylamino)-methyl]-phenol] | +
